One block for each molecule: values may come before it.
Legend:
Polygonum convolvulus [1] = assay: Post-emergence herbicidal effect; assay type: in vivo; details: 320 g/ha, assessed visually after about 3 weeks vs untreated controls
Procedure, shortened: (§1)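 Percent herbicidal action was judged by eye roughly 3 weeks post-application, 0% matching control plants and 100% meaning plant death. Seedlings, greenhouse-grown in sandy loam, received the spray at one leaf.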

Abutilon theophrasti [2] = assay: Post-emergence herbicidal effect; assay type: in vivo; details: assessed visually after about 3 weeks vs untreated controls
Procedure, shortened: as §1

Stellaria media [3] = assay: Post-emergence herbicidal effect; assay type: in vivo; details: assessed visually after about 3 weeks vs untreated controls
Procedure, shortened: as §1

Echinochloa crus-galli [4] = assay: Post-emergence herbicidal effect; assay type: in vivo; details: 320 g/ha, assessed visually after about 3 weeks vs untreated controls
Procedure, shortened: as §1

Setaria viridis = assay: Pre-emergence herbicidal effect; assay type: in vivo; details: scored visually after 3 weeks
Procedure, shortened: (§2)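 Visual damage score in % after 3 weeks in the greenhouse, relative to untreated controls (0% like control, 100% plants dead). Compounds were sprayed pre-emergence onto covering soil over seeds sown in sandy loam, as WP or EC in water at 600 to 800 L/ha plus 0.2% wetting agent.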

Polygonum convolvulus [5] = assay: Pre-emergence herbicidal effect; assay type: in vivo; details: scored visually after 3 weeks
Procedure, shortened: as §2

Lolium multiflorum = assay: Pre-emergence herbicidal effect; assay type: in vivo; details: Dosage 320 g/ha, scored visually after 3 weeks
Procedure, shortened: as §2

Viola tricolor [6] = assay: Pre-emergence herbicidal effect; assay type: in vivo; details: scored visually after 3 weeks
Procedure, shortened: as §2

Abutilon theophrasti [7] = assay: Pre-emergence herbicidal effect; assay type: in vivo; details: Dosage 320 g/ha, scored visually after 3 weeks
Procedure, shortened: as §2

Veronica persica [8] = assay: Pre-emergence herbicidal effect; assay type: in vivo; details: scored visually after 3 weeks
Procedure, shortened: as §2

Amaranthus retroflexus [9] = assay: Pre-emergence herbicidal effect; assay type: in vivo; details: scored visually after 3 weeks
Procedure, shortened: as §2

Stellaria media [10] = assay: Pre-emergence herbicidal effect; assay type: in vivo; details: scored visually after 3 weeks
Procedure, shortened: as §2

Matricaria inodora = assay: Pre-emergence herbicidal effect; assay type: in vivo; details: scored visually after 3 weeks
Procedure, shortened: as §2

Echinochloa crus-galli [11] = assay: Pre-emergence herbicidal effect; assay type: in vivo; details: scored visually after 3 weeks
Procedure, shortened: as §2

Viola tricolor [12] = assay: Post-emergence herbicidal effect; assay type: in vivo; details: assessed visually after about 3 weeks vs untreated controls
Procedure, shortened: as §1

Veronica persica [13] = assay: Post-emergence herbicidal effect; assay type: in vivo; details: 320 g/ha, assessed visually after about 3 weeks vs untreated controls
Procedure, shortened: as §1

Amaranthus retroflexus [14] = assay: Post-emergence herbicidal effect; assay type: in vivo; details: 320 g/ha, assessed visually after about 3 weeks vs untreated controls
Procedure, shortened: as §1

Alopecurus myosuroides = assay: Pre-emergence herbicidal effect; assay type: in vivo; details: Dosage 320 g/ha, scored visually after 3 weeks
Procedure, shortened: as §2

logP (HCOOH) = assay type: physicochemical; details: HCOOH
Description: Table 2 (physicochemical characterization of selected synthesis examples)

Structure (SMILES): Cc1cc2c(s1)CCC2Nc1ncc(S(C)(=O)=O)c(N)n1 (racemic) [compound 4]
post-emergence efficacy POLCO (Polygonum convolvulus [1]): 100%
post-emergence efficacy ABUTH (Abutilon theophrasti [2]; 80 g/ha): 80%
post-emergence efficacy ABUTH (Abutilon theophrasti [2]; 320 g/ha): 90%
post-emergence efficacy STEME (Stellaria media [3]; 320 g/ha): 100%
post-emergence efficacy ECHCG (Echinochloa crus-galli [4]): 100%
SETVI pre-emergence efficacy (herbicidal activity) (Setaria viridis; Dosage 80 g/ha): 100%
SETVI pre-emergence efficacy (herbicidal activity) (Setaria viridis; Dosage 320 g/ha): 100%
POLCO pre-emergence efficacy (herbicidal activity) (Polygonum convolvulus [5]; Dosage 320 g/ha): 100%
LOLMU pre-emergence efficacy (herbicidal activity) (Lolium multiflorum): 100%
VIOTR pre-emergence efficacy (herbicidal activity) (Viola tricolor [6]; Dosage 80 g/ha): 100%
VIOTR pre-emergence efficacy (herbicidal activity) (Viola tricolor [6]; Dosage 320 g/ha): 100%
ABUTH pre-emergence efficacy (herbicidal activity) (Abutilon theophrasti [7]): 100%
VERPE pre-emergence efficacy (herbicidal activity) (Veronica persica [8]; Dosage 80 g/ha): 100%
VERPE pre-emergence efficacy (herbicidal activity) (Veronica persica [8]; Dosage 320 g/ha): 100%
AMARE pre-emergence efficacy (herbicidal activity) (Amaranthus retroflexus [9]; Dosage 80 g/ha): 100%
AMARE pre-emergence efficacy (herbicidal activity) (Amaranthus retroflexus [9]; Dosage 320 g/ha): 100%
STEME pre-emergence efficacy (herbicidal activity) (Stellaria media [10]; Dosage 80 g/ha): 100%
STEME pre-emergence efficacy (herbicidal activity) (Stellaria media [10]; Dosage 320 g/ha): 100%
MATIN pre-emergence efficacy (herbicidal activity) (Matricaria inodora; Dosage 80 g/ha): 100%
MATIN pre-emergence efficacy (herbicidal activity) (Matricaria inodora; Dosage 320 g/ha): 100%
ECHCG pre-emergence efficacy (herbicidal activity) (Echinochloa crus-galli [11]; Dosage 320 g/ha): 100%

Structure (SMILES): Cc1cc2c(s1)C(Nc1ncc3c(n1)CCCC3=O)CCC2 (racemic) [compound 8]
post-emergence efficacy VIOTR (Viola tricolor [12]; 320 g/ha): 90%
post-emergence efficacy ABUTH (Abutilon theophrasti [2]; 320 g/ha): 80%
post-emergence efficacy VERPE (Veronica persica [13]): 90%
post-emergence efficacy AMARE (Amaranthus retroflexus [14]): 90%
post-emergence efficacy STEME (Stellaria media [3]; 80 g/ha): 80%
post-emergence efficacy STEME (Stellaria media [3]; 320 g/ha): 90%
post-emergence efficacy ECHCG (Echinochloa crus-galli [4]): 100%
SETVI pre-emergence efficacy (herbicidal activity) (Setaria viridis; Dosage 80 g/ha): 90%
SETVI pre-emergence efficacy (herbicidal activity) (Setaria viridis; Dosage 320 g/ha): 100%
POLCO pre-emergence efficacy (herbicidal activity) (Polygonum convolvulus [5]; Dosage 80 g/ha): 100%
POLCO pre-emergence efficacy (herbicidal activity) (Polygonum convolvulus [5]; Dosage 320 g/ha): 100%
ALOMY pre-emergence efficacy (herbicidal activity) (Alopecurus myosuroides): 80%
VIOTR pre-emergence efficacy (herbicidal activity) (Viola tricolor [6]; Dosage 80 g/ha): 100%
VIOTR pre-emergence efficacy (herbicidal activity) (Viola tricolor [6]; Dosage 320 g/ha): 100%
ABUTH pre-emergence efficacy (herbicidal activity) (Abutilon theophrasti [7]): 100%
VERPE pre-emergence efficacy (herbicidal activity) (Veronica persica [8]; Dosage 80 g/ha): 100%
VERPE pre-emergence efficacy (herbicidal activity) (Veronica persica [8]; Dosage 320 g/ha): 100%
AMARE pre-emergence efficacy (herbicidal activity) (Amaranthus retroflexus [9]; Dosage 80 g/ha): 100%
AMARE pre-emergence efficacy (herbicidal activity) (Amaranthus retroflexus [9]; Dosage 320 g/ha): 100%
STEME pre-emergence efficacy (herbicidal activity) (Stellaria media [10]; Dosage 80 g/ha): 80%
STEME pre-emergence efficacy (herbicidal activity) (Stellaria media [10]; Dosage 320 g/ha): 100%
MATIN pre-emergence efficacy (herbicidal activity) (Matricaria inodora; Dosage 80 g/ha): 100%
MATIN pre-emergence efficacy (herbicidal activity) (Matricaria inodora; Dosage 320 g/ha): 100%
ECHCG pre-emergence efficacy (herbicidal activity) (Echinochloa crus-galli [11]; Dosage 80 g/ha): 90%
ECHCG pre-emergence efficacy (herbicidal activity) (Echinochloa crus-galli [11]; Dosage 320 g/ha): 100%

Structure (SMILES): Cc1cc2c(o1)CC(C)(C)CC2Nc1ncc(S(C)(=O)=O)c(N)n1 (racemic) [compound 15]
logP (HCOOH) (logP (HCOOH)): oily; logP (HCOOH): 2.36; 1H NMR (CDCl3, 400 MHZ, δ in ppm): 1.05 (s, 3H, 3H of

Structure (SMILES): Nc1nc(NC2CCCc3sc(Cl)cc32)ncc1C(F)(F)F (racemic) [compound 22]
post-emergence efficacy POLCO (Polygonum convolvulus [1]): 90%
post-emergence efficacy VIOTR (Viola tricolor [12]; 320 g/ha): 90%
post-emergence efficacy ABUTH (Abutilon theophrasti [2]; 320 g/ha): 90%
post-emergence efficacy VERPE (Veronica persica [13]): 90%
post-emergence efficacy AMARE (Amaranthus retroflexus [14]): 100%
post-emergence efficacy STEME (Stellaria media [3]; 320 g/ha): 90%
post-emergence efficacy ECHCG (Echinochloa crus-galli [4]): 90%
SETVI pre-emergence efficacy (herbicidal activity) (Setaria viridis; Dosage 320 g/ha): 100%
POLCO pre-emergence efficacy (herbicidal activity) (Polygonum convolvulus [5]; Dosage 320 g/ha): 100%
LOLMU pre-emergence efficacy (herbicidal activity) (Lolium multiflorum): 100%
VIOTR pre-emergence efficacy (herbicidal activity) (Viola tricolor [6]; Dosage 320 g/ha): 100%
ABUTH pre-emergence efficacy (herbicidal activity) (Abutilon theophrasti [7]): 80%
VERPE pre-emergence efficacy (herbicidal activity) (Veronica persica [8]; Dosage 320 g/ha): 100%
AMARE pre-emergence efficacy (herbicidal activity) (Amaranthus retroflexus [9]; Dosage 320 g/ha): 100%
STEME pre-emergence efficacy (herbicidal activity) (Stellaria media [10]; Dosage 320 g/ha): 100%
MATIN pre-emergence efficacy (herbicidal activity) (Matricaria inodora; Dosage 320 g/ha): 100%
ECHCG pre-emergence efficacy (herbicidal activity) (Echinochloa crus-galli [11]; Dosage 320 g/ha): 100%

Structure (SMILES): Nc1nc(NC2CCc3ccsc32)ncc1[N+](=O)[O-] (racemic) [compound 32]
logP (HCOOH) (logP (HCOOH)): solid; m.p.: 189.5° C.; logP (HCOOH): 1.53;

logP (HCOOH) (logP (HCOOH)): solid; logP (HCOOH): 2.32;
Structure (SMILES): N#Cc1cnc(NC2CCc3cc(Cl)sc32)nc1N (racemic) [compound 49]
post-emergence efficacy VIOTR (Viola tricolor [12]; 80 g/ha): 80%
post-emergence efficacy VIOTR (Viola tricolor [12]; 320 g/ha): 90%
VIOTR pre-emergence efficacy (herbicidal activity) (Viola tricolor [6]; Dosage 80 g/ha): 100%
VIOTR pre-emergence efficacy (herbicidal activity) (Viola tricolor [6]; Dosage 320 g/ha): 100%
VERPE pre-emergence efficacy (herbicidal activity) (Veronica persica [8]; Dosage 320 g/ha): 70%
AMARE pre-emergence efficacy (herbicidal activity) (Amaranthus retroflexus [9]; Dosage 320 g/ha): 100%
STEME pre-emergence efficacy (herbicidal activity) (Stellaria media [10]; Dosage 80 g/ha): 90%
STEME pre-emergence efficacy (herbicidal activity) (Stellaria media [10]; Dosage 320 g/ha): 100%

Structure (SMILES): O=C1CCCc2nc(NC3CCCc4occc43)ncc21 (racemic) [compound 54]
logP (HCOOH) (logP (HCOOH)): oily; logP (HCOOH): 2.35; 1H NMR (CDCl3, 400 MHZ, δ in ppm): 1.80-2.00 (m, 4H,

logP (HCOOH) (logP (HCOOH)): oily; logP (HCOOH): 2.66;
Structure (SMILES): Cc1sc(C)c2c1CCCC2Nc1ncc(C#N)c(N)n1 (racemic) [compound 56]

Structure (SMILES): Cc1nc(NC2CCCc3c(C)sc(C)c32)nc(N)c1C#N (racemic) [compound 64]
logP (HCOOH) (logP (HCOOH)): solid, logP (HCOOH): 2.71; 1H NMR (CDCl3, 400 MHZ, δ in ppm): 1.75 (m, 3H, 3H

Reference: patent US10251395B2, “Substituted furano-/thienocycloalkylamino-2-pyrimidine derivatives and use thereof for controlling undesired plant growth” (Bayer CropScience Aktiengesellschaft, priority 2015, dated 2019)
